Results from patent publication US20230226002A1, “RETINAL BIOA[…] SYNTHETIC VERY-LONG-CHAIN POLYUNSATURATED FATTY ACIDS” (University of Utah Research Foundation, priority 2020, published 2023).

Key:
[1] = Repeated dose gavage for 15 days, GC-MS of serum and tissues; type: in vivo, WT mice (C57BL/6J); conditions: gavage 15 days
Procedure: Repeated dose gavage. VLC-PUFA liposomes were gavaged to three month old WT mice for 15 days. The mice were divided into three groups (n=4/group), Group 1 was fed with liposomes prepared with PC and alpha-tocopherol, Group 2 was fed with liposomes prepared with PC, VE, and 1 mg VLC-PUFAs and Group 3 was fed with liposomes with PC, VE and 2 mg VLC-PUFAs. Mice were sacrificed at the end of the experiment and organs were harvested, extracted for lipids and analyzed by GC-MS using the procedure mentioned elsewhere.
(§1) Serum, RBCs, orbital adipose tissue, and retina punches, were extracted using the procedure previously adopted (Liu, et al. (2013) J. Chromatogr. A 1307: 191-200). The samples and internal standards (50 μg of tridecanoic acid and 1.15 μg of hentriacontanoic acid) were added in 2 ml stainless steel vials and then homogenized with 0.7 ml silica beads and 1 ml hexane-isopropanol (3:2 v:v) by a Mini Bead Beater-16 (BioSpec Products Inc., Bartlesville, Okla., USA) and a Sonic Dismembrator Model 100 (Fisher Scientific, Pittsburgh, Pa., USA). The homogenized samples were bath sonicated for 5 min in an ice water bath. After centrifugation at 10,000 rpm for 5 min, the extracted solution supernatant was transferred to a clean vial and then dried under a stream of nitrogen. The dried film was dissolved in 200 μl hexane, and 2 ml of 4% HCl in methanol was added. The tubes were flushed with argon and incubated at 80° C. for 4 hr to form FAMEs (Liu, et al. (2013) J. Chromatogr. A 1307: 191-200) and then allowed to cool. The FAME mixture was extracted three times with 1 ml distilled water and 2 ml hexane. The hexane layers were combined and dried under nitrogen gas.
(§2) Silica gel, glass-encased, solid-phase extraction cartridges were subsequently used to clean the FAME extracts. The cartridge was activated with 6 ml of hexane before loading samples. The crude FAME extract was dissolved in 200 μl of hexane and loaded onto the activated cartridge. The cartridge was washed with 6 ml hexane, and the eluate was discarded. FAMEs were eluted from the cartridge with 5 ml hexane:ether (4:1), and the eluate was evaporated under nitrogen gas. The dry film was dissolved in 200 μl of hexane and centrifuged for 3 min at 14,000 rpm to remove particles prior to GC-MS analysis. 1 μl of sample was injected into the GC-MS instrument for LC-PUFAs analysis. For VLC-PUFAs analysis, the sample was dried with nitrogen again and re-dissolved in 20 μl of n-nonane, and 5 μl samples were injected into the GC-MS instrument.
(§3) The Thermo Trace GC-DSQ II system (ThermoFisher Scientific, Waltham, Mass., USA) consists of an automatic sample injector (AS 3000), gas chromatograph (GC), single quadrupole mass detector, and an analytical workstation. The chromatographic separation was carried out with an Rxi-5MS coated 5% diphenyl/95% dimethyl polysiloxane capillary column (30 m×0.25 mm i.d, 0.25 μm film thickness) (Restek, Bellefonte, Pa., USA). Two methods (A and B) were used for detection and quantitation of LC-PUFAs and VLC-PUFAs, respectively as previously published (Liu, et al. (2013) J. Chromatogr. A 1307: 191-200). Bovine retina VLC-PUFAs were extracted and employed as VLC-PUFA standards to establish retention times because commercial standards are not available, and identification of each VLC-PUFA in retinal samples was achieved as described in prior work (Liu, et al. (2010) J. Lipid Res. 51: 3217-3229).

[2] = DSPC flip-flop kinetics by sum-frequency vibrational spectroscopy; type: physicochemical; conditions: 0.1 mol % VLC-PUFA in DSPC vs pure DSPC, about 46° C.
Procedure: Planar supported lipid bilayers (PSLBs) used in this study were prepared using the Langmuir-Blodgett/Langmuir-Schaefer (LB/LS) method, the details of which are presented elsewhere (Liu and Conboy (2009) Vib. Spectrosc. 50: 106-115). Briefly, the cleaned SiO2 prisms were submerged in PBS. Afterwards, 0.1 mol % VLC-PUFA in DSPCd70 was spread over the air/water interface and allowed to thermally equilibrate for 15 minutes. Afterwards, the monolayer was compressed to 30 mN/m at a rate of 4 mm/min, and the surface pressure was allowed to stabilize for another 5 minutes. The prism was then withdrawn at a rate of 3 mm/min to deposit the LB layer. The subphase was removed, and the trough was cleaned using methanol, isopropanol, and water. […]
Following bilayer assembly, the flow-cell was flushed with PBS in D2O to eliminate any spectral interference from the 0-H bands from water. […] The flip-flop rates of DSPC were determined from the decay of methyl symmetric stretch mode (CH3 vs) for an asymmetrically prepared VLC-PUFA:DSPC membrane in which on leaflet contained dueterated DSPCd70 and DSPC. As DSPC lipid exchange between leaflets, the intensity of the CH3 vs decreases over time due to flip-flop and the rate of exchange is determined by fitting the data to ICH3(t)=Imin+Imaxe^−4kt, the results of which are presented in FIG. 2B. The half-lives of flip-flop were calculated using […]

[3] = π-A isotherms of VLC-PUFA in DSPC lipid monolayers (Langmuir trough); type: physicochemical
Procedure: Pressure-area (π-A) isotherms were collected using a Langmuir trough (KSV, Helsinki, Finland). PBS was used as the subphase for all isotherms. Stock solutions of pure VLC-PUFA, pure DSPC, and DSPC containing 0.1 mol %, 1 mol %, or 10 mol % VLC-PUFA were spread at the air/water interface and allowed to equilibrate for 15 minutes prior to compression to allow for solvent evaporation. The monolayers were compressed at a rate of 2 mm/min at 22±1° C. and repeated in triplicate. The averaged isotherms were smoothed using a 100-point rolling average. The MMA of mixture of VLC-PUFA in DSPC layers was calculated by the formula: MMADSPC+VLC-PUFA=MMADSPCXDSPC+MMAVLC-PUFAXVLC-PUFA, where the X is mol fraction of DSPC and VLC-PUFA in membrane.
After developing an efficient synthetic route to producing VLC-PUFAs, their previously unexplored biophysical properties were studied, including their impact on membrane packing and compressibility as well their influence on membrane dynamics, particularly lipid flip-flop. […] The changes imparted by VLC-PUFAs on lipid packing and the compression moduli of model membranes were evaluated from π-A isotherms of 32:6 n-3 in 1,2-distearoyl-sn-3-glycero-phosphocholine (DSPC) lipid monolayers (FIG. 2A). […]

[4] = Single dose gavage bioavailability, GC-MS of serum and tissues; type: in vivo, WT mice (C57BL/6J); conditions: single oral gavage dose of 6 mg, mice
Procedure: WT mice (C57BL/6J) mice have been used in this study for single dose gavage, repeated dose gavage and optomotry experiments. VLC-PUFA liposomes have been prepared using liposome kit (0.05%) with an addition of alpha-tocopherol (VE) (0.025%) to prevent oxidation. Three month old WT mice were gavage fed with VLC-PUFA liposomes. A dose of 6 mg/mice/day was used, half the dosage used for DHA by previous studies (Jiang, et al. (2009) The Journal of Nutritional Biochemistry 20: 735-741; Hacioglui, et al. (2007) Neurobiology of Learning and Memory 87: 159-165). The mice were gavage fed and sacrificed at time intervals (n=4/time point) of 2, 4, 8, and 24 hr to harvest the blood and other tissues. Eyes were dissected under the microscope to separate retina from RPE. One pair of retina/mouse have been used for lipid extraction as described in the procedure elsewhere. Blood was centrifuged for 5 min at 7500 rpm to separate serum from RBC. Serum, RBC, liver, retina and RPE have been used for lipid extractions and GC-MS analysis.
as §1, §2, §3

WT mice (C57BL/6J) = assay: Optomotry/Visual behavior test after repeated dose gavage; type: in vivo; conditions: 2 mg/day for 15 days by gavage, compared to controls
Procedure: Optomotry/Visual behavior test. Repeated dose gavage fed mice were tested for visual behavior to observe the effect of VLC-PUFA on vision. Since the optomotry tests could be manipulative, all the analysts were double blinded. 3 month-old mice were employed to test spatial visual acuity using the OptoMotry system (Cerebral Mechanics, Lethbridg, AB, Canada). Briefly, individual mice were placed on a platform centered in a quad-square formed by four inward facing computer screens, and their movements were monitored by an overhead video camera. Photopic measurements were conducted under illuminance of around 165 lux. […] During the detection of spatial frequency threshold, the rotation speed and contrast were kept at 12°/s, and 100%, respectively, while the frequency was kept at 0.19 cycle/degree in the examination of contrast sensitivity. All experiments had concurrent control mice fed with placebo chow.

[5] = 1 and 2 mg/day groups vs control mice (undetectable)
[6] = both 1 and 2 mg/day groups vs 0 mg/day controls, mice

CC/C=C\C/C=C\C/C=C\C/C=C\C/C=C\C/C=C\CCCCCCCCCCCCC(=O)O [32:6 n-3, (14Z,17Z,20Z,23Z,26Z,29Z)-dotriaconta-14,17,20,23,26,29-hexaenoic acid]
RBC VLC-PUFAs [1, 5]: significant increase | serum VLC-PUFAs [1, 5]: significant increase | VLC-PUFAs in brain ([1]; 1 and 2 mg/day, mice): no VLC-PUFAs were detectable | VLC-PUFAs in liver ([1]; 1 and 2 mg/day, mice): detectable levels of VLC-PUFAs only in the 2 mg/day group | increase of VLC-PUFA levels in RPE [1, 6]: 7 fold | increase of VLC-PUFA levels in retina [1, 6]: 2 fold | toxic symptoms or behavioral changes ([1]; treatment groups compared to the control group, mice): toxic symptoms or behavioral changes were observed | increase of the DSPC flip-flop rate [2]: 4 fold | elasticity of DSPC membranes ([3]; 0.1 mol % VLC-PUFA in DSPC membranes): high elasticity | shift of π-A isotherm / mean molecular area (MMA) of the lipids ([3]; 0.1 mol %, 1 mol % and 10 mol % VLC-PUFA in DSPC monolayer, PBS pH 7.4 subphase, 22° C.): shifted the π-A isotherm to higher MMAs | 32:6 n-3 level in RPE ([4]; 4-8 hr after gavage): significant increase | 32:6 n-3 level in retina ([4]; 4-8 hr after gavage): significant increase | time until serum VLC-PUFAs became detectable ([4]; serum): ≤ 2 h | serum VLC-PUFA concentration course after the first detection ([4]; serum, over the next 24 hr): reached a lower steady-state concentration | VLC-PUFAs in brain ([4]; throughout the 24 hr-period): undetectable | VLC-PUFAs in liver ([4]; throughout the 24 hr-period): undetectable | VLC-PUFAs in red blood cell (RBC) membranes ([4]; throughout the 24 hr-period): undetectable | contrast sensitivity (rod function) (WT mice (C57BL/6J)): improved significantly | visual acuity (cone function) (WT mice (C57BL/6J)): improved significantly
